# Assay results taken from EP0095295B1, “Cyclic peptide derivatives” (ELI LILLY AND COMPANY, priority 1982, dated 1987).
# Key:
# [1] = solubility (listed characteristics); type: physicochemical; conditions: water
# [2] = fermentation medium, pH values above pH 7.2
# Description: In stirred fermentors the pH may be controlled by sensor controllers. Where this is impractical, such as in flask fermentors, pH may be controlled by adding 0.1 molar phosphate buffer to the medium prior to addition of the substrate.
# acute toxicity in mice = type: in vivo; conditions: administered intravenously to mice
# Description: The acute toxicity of NTrp-p-(n-dodecyloxy)benzoyl-A―21978C, when administered intravenously to mice and expressed as LDso, was 67.5 mg/kg.
SMILES,Solubility [1],stability (alkaline hydrolysis) [2],acute toxicity expressed as LDso (acute toxicity in mice) [mg/kg]
C[C@H](CC(=O)O)[C@@H]1NC(=O)[C@@H](CO)NC(=O)CNC(=O)[C@H](CC(=O)O)NC(=O)[C@@H](C)NC(=O)[C@H](CC(=O)O)NC(=O)[C@H](CCCN)NC(=O)CNC(=O)[C@@H](NC(=O)[C@H](CC(=O)O)NC(=O)[C@H](CC(N)=O)NC(=O)[C@@H](N)Cc2c[nH]c3ccccc23)[C@@H](C)OC(=O)[C@H](CC(=O)c2ccccc2N)NC1=O [A-21978C nucleus],soluble in water,increasingly subject to alkaline hydrolysis,–
"CCCCCCCCCCCCOc1ccc(C(=O)N[C@@H](Cc2c[nH]c3ccccc23)C(=O)N[C@@H](CC(N)=O)C(=O)N[C@@H](CC(=O)O)C(=O)N[C@@H]2C(=O)NCC(=O)N[C@@H](CCCN)C(=O)N[C@@H](CC(=O)O)C(=O)N[C@H](C)C(=O)N[C@@H](CC(=O)O)C(=O)NCC(=O)N[C@H](CO)C(=O)N[C@@H]([C@H](C)CC(=O)O)C(=O)N[C@@H](CC(=O)c3ccccc3N)C(=O)O[C@@H]2C)cc1 [NTrp-p-(n-dodecyloxy)benzoyl-A―21978C, NTrp-P-(n-dodecyloxy)benzoyl-A-21978C Nucleus]",–,–,67.5
